Key:
Assay in all cases: NCI one-dose assay
OVCAR-3 = assay type: cell-based; conditions: Homo sapiens, OVCAR-3, Ovarian cancer, read-out: Cell growth inhibition %
A549/ATCC = assay type: cell-based; conditions: Homo sapiens, Non-small cell lung cancer, read-out: Cell growth inhibition %
SF-295 = assay type: cell-based; conditions: Homo sapiens, SF-295, CNS cancer, read-out: Cell growth inhibition %
SF-268 = assay type: cell-based; conditions: Homo sapiens, SF-268, CNS cancer, read-out: Cell growth inhibition %
MDA-MB-435 = assay type: cell-based; conditions: Homo sapiens, MDA-MB-435, Melanoma, read-out: Cell growth inhibition %
HS 578 T = assay type: cell-based; conditions: Homo sapiens, Breast cancer, read-out: Cell growth inhibition %
CCRF-CEM = assay type: cell-based; conditions: Homo sapiens, Leukemia, read-out: Cell growth inhibition %
CAKI-1 = assay type: cell-based; conditions: Homo sapiens, CAKI-1, Renal cancer, read-out: Cell growth inhibition %
K-562 = assay type: cell-based; conditions: Homo sapiens, K562, K-562, Leukemia, read-out: Cell growth inhibition %
HCT-116 = assay type: cell-based; conditions: Homo sapiens, HCT-116, Colon cancer, read-out: Cell growth inhibition %
SW-620 = assay type: cell-based; conditions: Homo sapiens, SW-620, Colon cancer, read-out: Cell growth inhibition %
COLO 205 = assay type: cell-based; conditions: Homo sapiens, COLO 205, Colon cancer, read-out: Cell growth inhibition %
EKVX = assay type: cell-based; conditions: Homo sapiens, Non-small cell lung cancer, read-out: Cell growth inhibition %
SK-MEL-2 = assay type: cell-based; conditions: Homo sapiens, SK-MEL-2, Melanoma, read-out: Cell growth inhibition %
SNB-75 = assay type: cell-based; conditions: Homo sapiens, SNB-75, CNS cancer, read-out: Cell growth inhibition %
RPMI-8226 = assay type: cell-based; conditions: Homo sapiens, RPMI-8226, Leukemia, read-out: Cell growth inhibition %
OVCAR-8 = assay type: cell-based; conditions: Homo sapiens, OVCAR-8, Ovarian cancer, read-out: Cell growth inhibition %
HOP-62 = assay type: cell-based; conditions: Homo sapiens, HOP-62, Non-small cell lung cancer, read-out: Cell growth inhibition %
T-47D = assay type: cell-based; conditions: Homo sapiens, T47D, Breast cancer, read-out: Cell growth inhibition %
UACC-62 = assay type: cell-based; conditions: Homo sapiens, UACC-62, Melanoma, read-out: Cell growth inhibition %
M14 = assay type: cell-based; conditions: Homo sapiens, M14, Melanoma, read-out: Cell growth inhibition %
KM12 = assay type: cell-based; conditions: Homo sapiens, KM12, Colon cancer, read-out: Cell growth inhibition %
SF-539 = assay type: cell-based; conditions: Homo sapiens, SF-539, CNS cancer, read-out: Cell growth inhibition %
MOLT-4 = assay type: cell-based; conditions: Homo sapiens, MOLT-4, Leukemia, read-out: Cell growth inhibition %
MDA-MB-231/ATCC = assay type: cell-based; conditions: Homo sapiens, Breast cancer, read-out: Cell growth inhibition %
HCC-2998 = assay type: cell-based; conditions: Homo sapiens, HCC-2998, Colon cancer, read-out: Cell growth inhibition %
HL-60(TB) = assay type: cell-based; conditions: Homo sapiens, Leukemia, read-out: Cell growth inhibition %
UACC-257 = assay type: cell-based; conditions: Homo sapiens, UACC-257, Melanoma, read-out: Cell growth inhibition %
HT29 = assay type: cell-based; conditions: Homo sapiens, HT-29, HT29, Colon cancer, read-out: Cell growth inhibition %
NCI-H322M = assay type: cell-based; conditions: Homo sapiens, Non-small cell lung cancer, read-out: Cell growth inhibition %
SK-MEL-5 = assay type: cell-based; conditions: Homo sapiens, SK-MEL-5, Melanoma, read-out: Cell growth inhibition %
HCT-15 = assay type: cell-based; conditions: Homo sapiens, HCT-15, Colon cancer, read-out: Cell growth inhibition %
U251 = assay type: cell-based; conditions: Homo sapiens, U-251, U251, CNS cancer, read-out: Cell growth inhibition %
HOP-92 = assay type: cell-based, human; conditions: Homo sapiens, HOP-92, HOP-92, Non-small cell lung cancer, read-out: Cell growth inhibition %
786-0 = assay type: cell-based, human; conditions: for inhibition at 10 µM: Homo sapiens, 786-0, 786-0, Renal cancer, read-out: Cell growth inhibition %
UO-31 = assay type: cell-based, human; conditions: for inhibition at 10 µM: Homo sapiens, UO-31, UO-31, Renal cancer, read-out: Cell growth inhibition %

Row | SMILES | inhibition at 10 µM (OVCAR-3) [%] | inhibition at 10 µM (A549/ATCC) [%] | inhibition at 10 µM (SF-295) [%] | inhibition at 10 µM (SF-268) [%] | inhibition at 10 µM (MDA-MB-435) [%] | inhibition at 10 µM (HS 578 T) [%] | inhibition at 10 µM (CCRF-CEM) [%] | inhibition at 10 µM (CAKI-1) [%] | inhibition at 10 µM (K-562) [%] | inhibition at 10 µM (HCT-116) [%] | inhibition at 10 µM (SW-620) [%] | inhibition at 10 µM (COLO 205) [%] | inhibition at 10 µM (EKVX) [%] | inhibition at 10 µM (SK-MEL-2) [%] | inhibition at 10 µM (SNB-75) [%] | inhibition at 10 µM (RPMI-8226) [%] | inhibition at 10 µM (OVCAR-8) [%] | inhibition at 10 µM (HOP-62) [%] | inhibition at 10 µM (T-47D) [%] | inhibition at 10 µM (UACC-62) [%] | other results
1 | C=CCn1c(SCC(=O)c2ccc(Br)cc2)nnc1-c1c[nH]c2ccccc12 [Compound 6d, 2-((4-Allyl-5-(1H-indol-3-yl)-4H-1,2,4-triazol-3-yl)thio)-1-(4-bromophenyl)ethenone] | -10.4 | -3.29 | 6.78 | -1.95 | -8.05 | -5.71 | 2.08 | 9.77 | 14.5 | 6.53 | -10.2 | -7.53 | 7.22 | -15.3 | -6.14 | 1.17 | 5.3 | -2.78 | 2.98 | 16.9 | inhibition at 10 µM (M14): 2.64%; inhibition at 10 µM (KM12): -2.46%; inhibition at 10 µM (SF-539): 8.23%; inhibition at 10 µM (MOLT-4): 8.82%; inhibition at 10 µM (MDA-MB-231/ATCC): 3.15%; inhibition at 10 µM (HCC-2998): -4.47%; inhibition at 10 µM (HL-60(TB)): 7.71%; inhibition at 10 µM (UACC-257): -7.6%; inhibition at 10 µM (HT29): -4.18%; inhibition at 10 µM (NCI-H322M): 0.55%; inhibition at 10 µM (SK-MEL-5): 4.07%; inhibition at 10 µM (HCT-15): 0.98%; inhibition at 10 µM (U251): 0.12%; inhibition at 10 µM (HOP-92): 8.6%; inhibition at 10 µM (786-0): 1.44%; inhibition at 10 µM (UO-31): 31.6%
2 | C=CCn1c(SCC(=O)c2ccccc2)nnc1-c1c[nH]c2ccccc12 [Compound 6a, 2-((4-Allyl-5-(1H-indol-3-yl)-4H-1,2,4-triazol-3-yl)thio)-1-phenylethanone] | -14.8 | -0.25 | 3.79 | -1.91 | -5.02 | 2.96 | 8.76 | 16.9 | 7.37 | 2.55 | 3.89 | -22.1 | 4.22 | -4.98 | 3.62 | 13.4 | 4.58 | 7.46 | 5.03 | 18.5 | inhibition at 10 µM (M14): 2.35%; inhibition at 10 µM (KM12): -11.8%; inhibition at 10 µM (SF-539): 2.68%; inhibition at 10 µM (MOLT-4): 7.17%; inhibition at 10 µM (MDA-MB-231/ATCC): 11.2%; inhibition at 10 µM (HCC-2998): -10.6%; inhibition at 10 µM (HL-60(TB)): 4.39%; inhibition at 10 µM (UACC-257): 2.08%; inhibition at 10 µM (HT29): -11.8%; inhibition at 10 µM (NCI-H322M): -1.89%; inhibition at 10 µM (SK-MEL-5): 3.38%; inhibition at 10 µM (HCT-15): 4%; inhibition at 10 µM (U251): -7.24%; inhibition at 10 µM (HOP-92): 18.7%; inhibition at 10 µM (786-0): -1.07%; inhibition at 10 µM (UO-31): 35%; Cell growth inhibition % (UO-31; UO-31, Renal cancer, 10 µM): 34.27%
3 | O/N=C(\CSc1nnc(-c2c[nH]c3ccccc23)n1-c1ccccc1)c1ccc(Br)cc1 [Compound 7i, (Z)-2-((5-(1H-Indol-3-yl)-4-phenyl-4H-1,2,4-triazol-3-yl)thio)-1-(4-bromophenyl) Ethanone Oxime] | 99.3 | 118 | 115 | 156 | 200 | 139 | 106 | 194 | 111 | 136 | 186 | 141 | 163 | 166 | 120 | 113 | 142 | 155 | 94 | 190 | inhibition at 10 µM (M14): 168%; inhibition at 10 µM (KM12): 97.9%; inhibition at 10 µM (SF-539): 165%; inhibition at 10 µM (MOLT-4): 119%; inhibition at 10 µM (MDA-MB-231/ATCC): 184%; inhibition at 10 µM (HCC-2998): 166%; inhibition at 10 µM (HL-60(TB)): 136%; inhibition at 10 µM (UACC-257): 109%; inhibition at 10 µM (HT29): 177%; inhibition at 10 µM (NCI-H322M): 173%; inhibition at 10 µM (SK-MEL-5): 124%; inhibition at 10 µM (HCT-15): 193%; inhibition at 10 µM (U251): 90.3%; inhibition at 10 µM (HOP-92): 111%; Cell growth inhibition % (786-0; 786-0, Renal cancer, 10 µM): 65.25%; inhibition at 10 µM (786-0): 65%; inhibition at 10 µM (UO-31): 96.4%
4 | C=CCn1c(SCC(=O)c2ccc(Cl)cc2)nnc1-c1c[nH]c2ccccc12 [Compound 6e, 2-((4-Allyl-5-(1H-indol-3-yl)-4H-1,2,4-triazol-3-yl)thio)-1-(4-chlorophenyl)ethenone] | -12.2 | 3.63 | 3.57 | -4.81 | -5.05 | -3.65 | 2.28 | 7.04 | 10.1 | 6.8 | -2.66 | -11.1 | 8.21 | -17.1 | -0.53 | 7.71 | 9.77 | 4.08 | 3.25 | 14.7 | inhibition at 10 µM (M14): 6.76%; inhibition at 10 µM (KM12): -3.89%; inhibition at 10 µM (SF-539): 0.21%; inhibition at 10 µM (MOLT-4): 10.6%; inhibition at 10 µM (MDA-MB-231/ATCC): 8.19%; inhibition at 10 µM (HCC-2998): -15.6%; inhibition at 10 µM (HL-60(TB)): 10.8%; inhibition at 10 µM (UACC-257): 2.2%; inhibition at 10 µM (HT29): -7.4%; inhibition at 10 µM (NCI-H322M): -2.47%; inhibition at 10 µM (SK-MEL-5): 3.94%; inhibition at 10 µM (HCT-15): 6.28%; inhibition at 10 µM (U251): 3.75%; inhibition at 10 µM (HOP-92): 21%; inhibition at 10 µM (786-0): 3.55%; inhibition at 10 µM (UO-31): 28.5%

— publication PMC11859928, “Design, Synthesis, and Antiproliferative Activity of Novel Indole/1,2,4-Triazole Hybrids as Tubulin Polymerization Inhibitors” (Pharmaceuticals, 2025)
